Laboratory results from patent US20090047335A1, “Anti-angiogenic peptides and methods of use thereof” (SOPHERION THERAPEUTICS, INC., priority 2004, published 2009).
“And” between values parts separate entries of the source, which are not always exact repeats. Equal values may be shown once.

How the values were obtained:
[1] = system: bovine retinal endothelial cells (BRE); assay: VEGF mediated survival/proliferation of BRE cells, WST-1 assay, peptides added at plating (before cells adhered); assay type: cell-based; details: VEGF 25 ng/ml, 72 h; for WST-1 induced colorimetric change measured at 440 nm, average: average of wells; for WST-1 induced colorimetric change measured at 440 nm: single wells, 1% FBS
Protocol: The anti-angiogenic activities of the peptides were tested by measuring the level of inhibition of VEGF mediated survival/proliferation of bovine retinal endothelial cells (BRE), a standard cell line used to test anti-angiogenic compounds. Cells were maintained in Cambrex EGM-2MV medium. On day one cells were starved for either 6 hours or overnight, and thereafter trypsinized and plated in a 96 well plate in 100 μl of Invitrogen OptiMem+1% fetal bovine serum. A 100 μl aliquot of Invitrogen OptiMem+1% fetal bovine serum was then added to the wells in addition to, where appropriate, VEGF to a final concentration of 25 ng/ml and the various peptides to final concentration of 12.5, 25, 50 and 100 μg/ml. After 72 hours incubation, the number of live cells in each well was determined using the WST-1 assay (Roche).
The experiment was repeated using higher concentrations of peptide, to a maximum concentration of 200 μg/ml. This required the addition of a substantial amount of water (the peptides are soluble in water and are maintained as stock solution of 2 mg/ml). Therefore, we tested whether the addition of water itself would have any inhibitory effects. As before, BRE were maintained in Cambrex EGM-2MV medium. On day one, cells were starved for either 6 hours or overnight, and thereafter trypsinized and plated in a 96 well plate in 100 μl of OptiMem+1% fetal bovine serum. A 100 μl aliquot of OptiMem+1% fetal bovine serum was then added to the wells, further containing, where appropriate, VEGF to a final concentration of 25 ng/ml and the various peptides to final concentration of 25, 50, 100 and 200 μg/ml. After 72 hours incubation, the amount of live cells in each well was measured using the WST-1 assay (Roche). […]

in vitro = in vitro ADME, bovine; details: serum
Protocol: A stock solution of 1 mM peptide dissolved in water was made. The stock was then diluted to 100 μM in either OptiMem medium+100 units/ml of penicillin and 100 μg/ml streptomycin sulfate+1% fetal bovine serum or in OptiMem+Pen/Strep+10% fetal bovine serum. The diluted samples were placed in a 24-well tissue culture plate in an incubator at 37 degrees. Aliquots of 50-100 μl were removed at 4, 6, 18, 24, 48 and 72 hrs and frozen at −70° C. until analysis.
Samples of 20 μl were separated on a C18 reverse phase column (4.8×250 mm) with a gradient of acetonitrile/water 0.1% TFA and analyzed using a single quad mass spectrometer. Singly or multiply charged peaks were detected depending on the mass of the peptide. Peptide degradation was determined in two ways: loss of peak area in the chromatogram produced using the mass spectrometer as the detector and loss of the main peak in the mass spectrum with simultaneous appearance of a peak(s) from a breakdown product.

[2] = system: VEGF-induced angiogenesis; assay: VEGF-induced angiogenesis in Matrigel angio-reactors in FVB/N mice, FITC-dextran fluorescence; assay type: in vivo
Protocol: The peptides of the invention were also tested in an in vivo model of anti-angiogenic activity. This model analyzes VEGF-induced angiogenesis as it occurs in angio-reactors filled with Matrigel in wild-type FVB/N mice (Guedez et al., 2003, Am. J. Pathol. 162:1431-1439).
• Sterile, polyethene tubing (0.14 cm internal diameter) is cut to standard 1 cm lengths using a plexiglass template and single edge razor blade. These tubes are sealed at one end with nail-polish. Into the tubes, 20 μl of Matrigel (growth factor free obtained from BD Biosciences) containing 500 ng/ml VEGF with or without the indicated peptides is injected. After one hour of polymerization of the Matrigel at room temperature the angio-reactors are subcutaneously implanted into both flanks of wild-type FVB/N female mice (8-10 weeks old).
• After 10 days, angiogenesis in the angio-reactors is determined. Mice receive a 100 μl injection of 25 mg/ml of FITC-dextran in phosphate-buffered saline (PBS) via tail vein 20 minutes before collection of the angio-reactors. Quantification of vessel functionality is performed by removal of the Matrigel from the angio-reactors and the fluorescence is measured using a FLUOstar Galaxy microplate reader (excitation 485 nm, emission 520 nm, BMG Labtechnologies GmbH, Germany). The mean relative fluorescence±SD for 10 angio-reactors is determined and statistical analysis performed.

[3] = system: Mouse B16-F1 melanoma cells; assay: Growth of subcutaneous B16 melanoma tumor in C57BL/6 mice; assay type: in vivo; set-up: unit not given beside the values; details: group average, Doxorubicin group
Protocol: The peptides of the invention were tested in an in vivo model of anti-tumor activity. This model compares the growth of subcutaneous B16 melanoma tumor either untreated or treated with either 20 mg/kg, 40 mg/kg, 100 mg/kg daily ip doses of ST100,059.
Male C57BL/6 mice were obtained with a mean body weight of 20±2 g. Mouse B16-F1 melanoma cells were implanted subcutaneously (5×10^5 cell per animal). Peptides (formulated in water) were administered ip daily starting the day after injection of cells. Tumors became palpable around 9 days after injection of the cells. Tumors were then measured every 2 days.

[4] = system: human breast cancer MDA-MB231 tumor xenografts; assay: Human breast cancer MDA-MB231 tumor xenografts in nude mice: caliper and actual tumor weight, necrotic score; assay type: in vivo; details: Docetaxel group
Protocol: The peptides of the invention were tested in an in vivo model of anti-tumor activity. This model compares the growth of the human breast cancer MDA-MB231 tumor xenografts in nude mice treated with 10 mg/kg or 20 mg/kg daily ip of ST100,059, docetaxel or saline.
Female nude mice (nu/nu) between 5 and 6 weeks of age weighing approximately 20 g were obtained from Harlan, Inc. Animals were implanted subcutaneously (s.c.) by trocar with fragments of human tumors harvested from s.c. grown tumors in nude mice hosts. When the tumors were approximately 60-75 mg in size (about 10-15 days following implantation), the animals were pair-matched into treatment and control groups. Each group contained 8-10 mice, each of which is ear-tagged and followed individually throughout the experiment.
The administration of drugs or controls began the day the animals were pair-matched with tumor size of about 70 mg (Day 1). Mice were weighed and tumor measurements were obtained using calipers twice weekly, starting on Day 1. These tumor measurements were converted to mg tumor weight by the standard formula, (W^2×L)/2. Upon termination of the experiment, the mice were weighed, sacrificed and their tumors were excised. The tumors were weighed, and the mean and medium tumor weight per group was calculated.
For each group, the table reports the caliper measurements and the actual tumor weights obtained as described above.

[5] = experiment 2, Bonferroni's Multiple Comparison Test

LPPHSSQSP ((1)..(1) May be biotinylated; listed as Homo sapiens) [ST100,039]
WST-1 induced colorimetric change measured at 440 nm, average ([1]; peptide 12.5 μg/ml, Table 2): 0.686 | WST-1 induced colorimetric change measured at 440 nm, average ([1]; peptide 25 μg/ml, Table 2): 0.656 | WST-1 induced colorimetric change measured at 440 nm, average ([1]; peptide 25 μg/ml, Table 3): 0.462 | WST-1 induced colorimetric change measured at 440 nm, average ([1]; peptide 50 μg/ml, Table 2): 0.576 | WST-1 induced colorimetric change measured at 440 nm, average ([1]; peptide 50 μg/ml, Table 3): 0.496 | WST-1 induced colorimetric change measured at 440 nm, average ([1]; peptide 100 μg/ml, Table 2): 0.609 | WST-1 induced colorimetric change measured at 440 nm, average ([1]; peptide 100 μg/ml, Table 3): 0.478 | WST-1 induced colorimetric change measured at 440 nm, average ([1]; peptide 200 μg/ml, Table 3): 0.443 | WST-1 induced colorimetric change measured at 440 nm ([1]; peptide 12.5 μg/ml, Table 2): 0.701 and 0.735 and 0.621 | WST-1 induced colorimetric change measured at 440 nm ([1]; peptide 25 μg/ml, Table 2): 0.717 and 0.687 and 0.564 | WST-1 induced colorimetric change measured at 440 nm ([1]; peptide 25 μg/ml, Table 3): 0.411 and 0.495 and 0.480 | WST-1 induced colorimetric change measured at 440 nm ([1]; peptide 50 μg/ml, Table 2): 0.605 and 0.593 and 0.530 | WST-1 induced colorimetric change measured at 440 nm ([1]; peptide 50 μg/ml, Table 3): 0.489 and 0.507 and 0.491 | WST-1 induced colorimetric change measured at 440 nm ([1]; peptide 100 μg/ml, Table 2): 0.659 and 0.588 and 0.581 | WST-1 induced colorimetric change measured at 440 nm ([1]; peptide 100 μg/ml, Table 3): 0.451 and 0.517 and 0.465 | WST-1 induced colorimetric change measured at 440 nm ([1]; peptide 200 μg/ml, Table 3): 0.416 and 0.453 and 0.459

CC(C)C[C@H](NC(=O)[C@H](CO)NC(=O)[C@@H](NC(=O)[C@H](C)N)[C@@H](C)O)C(=O)N1CCC[C@H]1C(=O)N1CCC[C@H]1C(=O)N[C@@H](Cc1c[nH]cn1)C(=O)N[C@@H](CO)C(=O)N[C@@H](CO)C(=O)N[C@@H](CCC(N)=O)C(=O)N[C@@H](CO)C(=O)N1CCC[C@H]1C(=O)O [ST100,038, ATSLPPHSSQSP]
peptide remaining (in words) (in vitro; bovine, 18 h): none remained | metabolised at 4 h, 100 μM (in vitro): 50% | metabolised at 6 h, 100 μM (in vitro): 65% | metabolised at 18 h, 100 μM (in vitro): 25% | metabolised at 24 h, 100 μM (in vitro): 33% | metabolised at 48 h, 100 μM (in vitro): 60% | metabolised at 72 h, 100 μM (in vitro): 85%

SPWSSCSVTCGDGVITRIR (listed as Homo sapiens) [TSP616]
relative fluorescence (FITC-dextran) of angio-reactors, mean ([2]; experiment 1, group mean, VEGF + inhibitor 40 μM): 6111 | Mean Diff., pbs vs inhibitor group [2, 5]: −0.5 | Mean Diff., vegf vs inhibitor group [2, 5]: 2645 | relative fluorescence of angio-reactors, average ([2]; experiment 2, group average): 635 | relative fluorescence of angio-reactors, median ([2]; experiment 2, group median): 484

COc1cccc2c1C(=O)c1c(O)c3c(c(O)c1C2=O)C[C@@](O)(C(=O)CO)C[C@@H]3O[C@H]1C[C@H](N)[C@H](O)[C@H](C)O1 [Doxorubicin]
subcutaneous B16 melanoma tumor measurement, Average ([3]; Day 11): 213.41 | subcutaneous B16 melanoma tumor measurement, Average ([3]; Day 13): 419.71 | subcutaneous B16 melanoma tumor measurement, Average ([3]; Day 15): 744.61 | subcutaneous B16 melanoma tumor measurement, Average ([3]; Day 16): 1261.33

CC(=O)O[C@@]12CO[C@@H]1C[C@H](O)[C@@]1(C)C(=O)[C@H](O)C3=C(C)[C@@H](OC(=O)[C@H](O)[C@@H](NC(=O)OC(C)(C)C)c4ccccc4)C[C@@](O)([C@@H](OC(=O)c4ccccc4)[C@H]21)C3(C)C [Docetaxel]
actual tumor weight, Average ([4]; group average): 1523 mg | caliper tumor weight, Average ([4]; group average): 1742.22 mg | actual tumor weight, Median ([4]; group median): 35 mg | caliper tumor weight, Median ([4]; group median): 75 mg | caliper tumor weight ([4]; individual mouse, caliper measurement converted by (W^2×L)/2, at termination): 87.5 mg and 32 mg (2×) and 48 mg and 75 mg (2×) and 288 mg and 126 mg (2×) | actual tumor weight ([4]; individual mouse, excised tumor weighed): 54 mg and 10 mg and 18 mg and 26 mg and 35 mg and 225 mg and 25 mg and 82 mg and 46 mg

LPPHSS (listed as Homo sapiens) [ST100,037]
WST-1 induced colorimetric change measured at 440 nm, average ([1]; peptide 12.5 μg/ml, Table 2): 0.753 | WST-1 induced colorimetric change measured at 440 nm, average ([1]; peptide 25 μg/ml, Table 2): 0.708 | WST-1 induced colorimetric change measured at 440 nm, average ([1]; peptide 25 μg/ml, Table 3): 0.449 | WST-1 induced colorimetric change measured at 440 nm, average ([1]; peptide 50 μg/ml, Table 2): 0.643 | WST-1 induced colorimetric change measured at 440 nm, average ([1]; peptide 50 μg/ml, Table 3): 0.442 | WST-1 induced colorimetric change measured at 440 nm, average ([1]; peptide 100 μg/ml, Table 2): 0.694 | WST-1 induced colorimetric change measured at 440 nm, average ([1]; peptide 100 μg/ml, Table 3): 0.466 | WST-1 induced colorimetric change measured at 440 nm, average ([1]; peptide 200 μg/ml, Table 3): 0.386 | WST-1 induced colorimetric change measured at 440 nm ([1]; peptide 12.5 μg/ml, Table 2): 0.780 and 0.730 and 0.748 | WST-1 induced colorimetric change measured at 440 nm ([1]; peptide 25 μg/ml, Table 2): 0.716 and 0.713 and 0.695 | WST-1 induced colorimetric change measured at 440 nm ([1]; peptide 25 μg/ml, Table 3): 0.439 and 0.432 and 0.476 | WST-1 induced colorimetric change measured at 440 nm ([1]; peptide 50 μg/ml, Table 2): 0.636 and 0.659 and 0.633 | WST-1 induced colorimetric change measured at 440 nm ([1]; peptide 50 μg/ml, Table 3): 0.427 and 0.438 and 0.462 | WST-1 induced colorimetric change measured at 440 nm ([1]; peptide 100 μg/ml, Table 2): 0.692 and 0.697 and 0.694 | WST-1 induced colorimetric change measured at 440 nm ([1]; peptide 100 μg/ml, Table 3): 0.449 and 0.486 and 0.462 | WST-1 induced colorimetric change measured at 440 nm ([1]; peptide 200 μg/ml, Table 3): 0.384 and 0.401 and 0.372
